According to ChEMBL document CHEMBL4619799, “Mechanistic Insight into Antiretroviral Potency of 2'-Deoxy-2'-β-fluoro-4'-azidocytidine (FNC) with a Long-Lasting Effect on HIV-1 Prevention” (J Med Chem, 2020):
pEC50: −log10 of the molar value. The source made the active and inactive calls. The calls are words filed in the database; no cut-off is given here.

Columns and labels:
[1] = biological target: Virion infectivity factor (Human immunodeficiency virus type 1 group M subtype B (isolate NY5)(HIV-1)) (UniProt P12504); assay: Inhibition of HIV1 HA-tagged Vif expressed in HEK293T cells co-expressing Myc-tagged pcDNA-APOBEC3G and pcDNA-ubiquitin-His assessed as reduction in Vif-mediated A3G polyubiquitination at 3.5 to 35 nM measured after 48 hrs by Western blot analysis; type: cell-based; details: Human immunodeficiency virus 1, HEK-293T
Chain of Virion infectivity factor (Human immunodeficiency virus type 1 group M subtype B (isolate NY5)(HIV-1)) (P12504 whole entry): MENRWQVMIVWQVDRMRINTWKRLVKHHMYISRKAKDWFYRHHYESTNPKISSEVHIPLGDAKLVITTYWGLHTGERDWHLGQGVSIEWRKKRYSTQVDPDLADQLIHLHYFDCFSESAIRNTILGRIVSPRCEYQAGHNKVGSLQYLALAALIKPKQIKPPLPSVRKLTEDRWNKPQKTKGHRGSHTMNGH

[2] = system: Human immunodeficiency virus 1; assay: Antiviral activity against JRFL pseudotyped HIV1 infected in human Hut/CCR5 cells assessed as time needed to reach 50% reduction of virus infection at 10 nM incubated with cells for 4 hrs prior to compound washout followed by viral infection and measured after 72 hrs by luciferase reporter gene assay; type: functional
[3] = system: Human immunodeficiency virus 1; assay: Antiviral activity against VSVG pseudotyped HIV1 infected in HEK293 cells preincubated for 3 hrs followed by compound washout and subsequent compound redosing and measured after 72 hrs by luciferase reporter gene based assay; type: functional, organism-based; details: Human immunodeficiency virus 1, HEK293
[4] = biological target: Virion infectivity factor (Human immunodeficiency virus type 1 group M subtype B (isolate NY5)(HIV-1)) (UniProt P12504); assay: Inhibition of HIV1 HA-tagged Vif expressed in HEK293T cells co-expressing Myc-tagged pcDNA-APOBEC3G assessed as reduction in Vif-mediated A3G degradation at 10 nM measured after 48 hrs by Western blot analysis; type: cell-based; details: Human immunodeficiency virus 1, HEK-293T
Homo sapiens = assay: In vivo inhibition of Vif-induced A3G degradation in HIV1 infected patient assessed as increase in A3G expression in CD4-positive T cells at 4 mg administered daily for 7 days measured 24 hrs post-last dose by Western blot analysis; type: functional, organism-based
[5] = biological target: Virion infectivity factor (Human immunodeficiency virus type 1 group M subtype B (isolate NY5)(HIV-1)) (UniProt P12504); assay: Inhibition of HIV1 HA-tagged Vif expressed in HEK293T cells co-expressing eGFP-tagged pcDNA-APOBEC3G assessed as reduction in Vif-mediated A3G degradation at 10 nM measured after 48 hrs by flow cytometry; type: cell-based; details: Human immunodeficiency virus 1, HEK-293T
[6] = AUC (0 to 24 hrs) in monkey at 6 mg/kg, po administered as single dose by LC-MS/MS analysis; type: ADME, organism-based, Macaca mulatta; parameters: dose 6 mg/kg, time < 24 hr, route oral; details: rhesus monkey, in vivo

SMILES: [N-]=[N+]=N[C@]1(CO)O[C@@H](n2ccc(N)nc2=O)[C@@H](F)[C@@H]1O [RO-0622]
- inhibition [1]: Active
- Time [2]: 123.06 to 123.1 h
- pEC50 [3]: 10.20
- inhibition [4]: Active
- inhibition (Homo sapiens): Active
- inhibition [5]: Active
- AUC(0-t) at 24 h [6]: 7.58 µM·h
